# Tests used:
# [1] = tested on: obese, insulin resistant, hyperinsulinaemic Zucker fa/fa rats; test: Experiment 1: carbohydrate metabolism (fasting glucose/insulin, ip glucose tolerance test) after 2-month treatment; type: in vivo, rat
# Protocol: In the experiments so-called Zucker fa/fa rats (Charles River Laboratories Inc.) were used. In […] animals, obesity, insulin resistance, high blood insulin level, impaired glucose tolerance and hypertriglyceridaemia result from hypothalamic leptin receptor mutation. Due to the above characteristics, this is an accepted model of early type 2 diabetes.
# The animals were placed in individual metabolic cages for 24 hours at the beginning of the study, and after 1 or 2 months of treatment for 24 hours of urine collection.
# The animals were given either the test substances or physiological saline solution by gavage for control once a day between weeks 14-22.
# Biochemical parameters of the blood and the urine were measured by a Kodak Ectachem 700 automatic analyzer. The total protein level of the urine was determined spectrophotometrically with the use of Bradford staining (Hitachi U-3200) at 595 nm. The insulin concentration of the serum was determined by the RIA method, using rat anti-insulin antibodies.
# Systolic, diastolic blood pressure and heart rate were measured weekly on the tails of the rats (so-called tail cuff method) by a Letica 200 automatic analyzer. After two months of treatment, the level of glucose tolerance was determined by the intraperitoneal glucose tolerance test (2 g/kg ip.).
# STZ-diabetic Wistar rats [2] = test: Experiment 2: peripheral neuropathy, nerve conduction velocity after 1-month treatment; type: in vivo, rat; details: for MNCV / MNCV improvement / SNCV / SNCV improvement: 1 month
# Description: (Graphpad Instat, San Diego, Calif.).
# STZ-diabetic Wistar rats [3] = test: Experiment 3: diabetic autonomous neuropathy after 1 month of treatment; type: in vivo, rat; details: daily 20 mg/kg single dose
# Protocol: The experiments were performed under anesthesia achieved by administering 60 mg/kg ip. pentobarbital sodium (Nembutal, Sanofi, Phylaxia). After this, an intratracheal tube or polyethylene canula was inserted into the fermoral artery and vein. The arterial catheter was connected to a pressure transducer for the simultaneous measurement of systolic and diastolic blood pressure (online automatic measuring and forwarding system, with a Haemosys computer program). After 20 minutes of equillibration period, the following substances were administered intravenously: Noradrenalin, 5 μg/kg iv.—Isoproterenol 0.4 μg/kg iv.—N.vagus stimulation (2 V, duration: 500 μsec, delay: 1 msec). The effects of the substances were monitored for 10 minutes.
# STZ-diabetic Wistar rats [4] = test: Experiment 4: histological alterations of early diabetic retinopathy after 1 month of treatment; type: in vivo, rat
# Protocol: Photographs and slide positives were prepared of representative samples.
# The given value for negative cases was 0.1. A Box and Whisker plot graph was also prepared.
# STZ-diabetic Wistar rats [5] = test: Experiment 5: urinary protein loss caused by diabetic nephropathy after 1-month treatment; type: in vivo, rat
# Protocol: For the 24-hour period of urine collection, the animals were placed in individual metabolic cages. During this period they were given water ad libitum but no food. The latter measure was necessary to prevent possible contamination by the protein content of the food. Urine was collected in calibrated glass containers, in which Thymol crystal (Reanal 3135-1-08-38) was placed to prevent bacterial contamination.
# Before measurement, the urine samples were centrifuged (2500 rpm) and filtered through a paper filter (Whatmann 1). If necessary, they were stored at −20° C. until measurement.
# The total protein content of the urine was determined by the Bradford staining method (Sigma B-6916, St. Louis, Mo.), and color intensity was detected by spectrophotometry (Hitachi-U-3200).
# STZ-diabetic rats = details: 2 month
# Protocol: After anesthesia (Calypsovet, 125 mg/kg. Ip., Richter Rt., Hungary), the eyes were enucleated and fixed in 4% formaldehyde dissolved in a phosphate buffer (pH:7.4).
# Afterwards, they were embedded in paraffin (Medim DDM P800, embedding center: Lignifer L-120-92-014, stainer: Shandon Eliott, Microtome: is Leica SM 2000 R, Microscope: Jenaval Karl Zeiss Jena). Several 6 micron sections of the eyes were prepared, and hematoxilyn/eosine (Fluka) and PAS (periodic acid-Schiff, Fluka) staining were used. The light-microscopic evaluation was performed at a magnification of 40× and 100×. Photographs and slide positives were prepared of representative samples.
# The histological evaluation was performed on coded samples, the group division was unknown for the examiner. Pathological deviations of the retina were graded on a scale of 0-20, while those of the lens on a scale of 0-3.
# The statistical calculations were done with the Statistica 4.5 (SatSoft, USA) program. The given value for negative cases was 0.1. A Box and Whisker plot graph was also prepared.
# For each group in the experiment, the mean±SE (Standard Error) values were calculated, and the comparison was done with the help of a non-parametric Mann-Whitney U-test (Graphpad Instat, San Diego, Calif.).
# STZ-diabetic Wistar rats [6] = tested on: STZ-diabetic Wistar rats
# Description: The experiments were accomplished on Wistar rats with a body weight of 320-350 g. Diabetes was induced and checked as described in Experiment 2. In the test animals having been diabetic for 3 weeks the left nervus ischidiacus was injured by freezing and the right side one was used as non-injured control. The regeneration was observed by monitoring the signals of the flexor reflex provoked by irritation of the sole that is areas under curve (AUC) of the electromyogram transferred from the forward tibial muscle. For the stimulation and detection the system described in Experiment 2 was used. Single daily doses of 10 mg/kg of Compound-A and 5 mg/kg of A(+) enantiomer were administred for 5 weeks after the injury by freezing.
# STZ-diabetic Wistar rats [7] = test: Experiment 6: Compound-A and enantiomers, nerve conduction velocity after 1 month treatment
# Protocol: In the experiments, male Wistar rats were used (Charles River Laboratories Inc.). At the start of the experiment, their weights were 340-370 g. Diabetes was induced by the intravenous administration of a single 45 mg/kg dose of streptozotocine (STZ, Sigma, St. Louis, Mo.) dissolved in physiological saline solution. The development of diabetes was checked after 1 day by a blood glucose test, accepting a value over 15 mmol/l.
# The test and reference substances were administered p.os to the animals once a day.
# For the determination of nerve conduction velocity (NCV), the method of Stanley, modified by De Konig and Gispen was used. The animals were anesthetized by the simultaneous administration of Hyponorm (1 mg/kg ip., Janssen, Tilburg, Denmark), fluanisone (10 mg/ml), and phentanyl citrate (0.2 mg/ml). Afterwards, the left ischiadicus and tibial nerves were stimulated at standard points. Supramaximal stimulus (square impulse, 0.03 ms) was used with a platinum needle electrode, through a Nihon-Kohden (model SEN-1104, Japan) stimulator. The electromyogram (EMG) transferred from the sole muscles and intensified by a myograph (Elema-Schonander, Stockholm, Sweden) was analyzed further by the Matlab for Windows (Mathwork Inc, UK) program. The extent of NCV damage caused by diabetes was expressed in m/s. The effectiveness of the treatment was compared to this in terms of percentage (%). The statistical calculations were done by unpaired t-test or single-criterion ANOVA test (along with the Newman-Keuls post hoc test).
# [8] = 20 mg/kg p.os daily, 2-month treatment
# [9] = intraperitoneal glucose tolerance test
# [10] = ip glucose tolerance test 2 g/kg, AUC 0-60 minutes, 20 mg/kg p.os daily, 2-month treatment
# [11] = Compound-A 10 mg/kg, enantiomers 5 mg/kg daily
structure (smiles),measurement,setting,value
"O=C(O)/C=C\C(=O)O.[O-][n+]1cccc(C(Cl)=NOCC(O)CN2CCCCC2)c1 (centres unmarked) [Compound A, N-[2-hydroxy-3-(1-piperidinyl)-propoxy]-pyridine-1-oxide-3-carboximidoyl chloride (Z)-2-butenedioate (1:1)]",effect on fasting blood glucose,[1]; 20 mg/kg p.os daily,significantly reduced
same,effect on fasting insulin concentration,[1]; 20 mg/kg p.os daily,significantly reduced
same,reduction of fasting insulin concentration,[1]; 20 mg/kg p.os daily,approx. 50%
same,Fasting Blood Glucose (mean ± SE),[1]; [8],8.267 ± 0.436 mmol/L
same,Fasting Insulin (mean ± SE),[1]; [8],11.176 ± 1.955 ng/mL
same,effect on AUC of insulin,[1]; [9],"reduced it significantly, to the same level as the Lean control"
same,effect on area under the blood glucose curve (AUC),[1]; [9],"neither bimoclomol, nor Compound A effected"
same,Blood Glucose (AUC) (mean ± SE),[1]; [10],1418.40 ± 194.57
same,Insulin (AUC) (mean ± SE),[1]; [10],790.35 ± 166.08
same,effect on peripheral insulin resistance,[1]; summary of Experiment 1,significantly reduces
same,MNCV,STZ-diabetic Wistar rats [2]; 5 mg/kg p.os once a day,57.4 ± 0.3 m/s
same,MNCV improvement,STZ-diabetic Wistar rats [2]; 5 mg/kg p.os once a day,79.5%
same,SNCV,STZ-diabetic Wistar rats [2]; 5 mg/kg p.os once a day,58.4 ± 0.3 m/s
same,SNCV improvement,STZ-diabetic Wistar rats [2]; 5 mg/kg p.os once a day,77.6%
same,MNCV,STZ-diabetic Wistar rats [2]; 10 mg/kg p.os once a day,59.2 ± 0.3 m/s
same,MNCV improvement,STZ-diabetic Wistar rats [2]; 10 mg/kg p.os once a day,90.4%
same,SNCV,STZ-diabetic Wistar rats [2]; 10 mg/kg p.os once a day,60.4 ± 0.4 m/s
same,SNCV improvement,STZ-diabetic Wistar rats [2]; 10 mg/kg p.os once a day,89.0%
same,MNCV,STZ-diabetic Wistar rats [2]; 20 mg/kg p.os once a day,59.1 ± 0.3 m/s
same,MNCV improvement,STZ-diabetic Wistar rats [2]; 20 mg/kg p.os once a day,89.8%
same,SNCV,STZ-diabetic Wistar rats [2]; 20 mg/kg p.os once a day,60.1 ± 0.3 m/s
same,SNCV improvement,STZ-diabetic Wistar rats [2]; 20 mg/kg p.os once a day,87.4%
same,effect on motor (MNCV) and sensor (SNCV) nerve conduction velocities,"STZ-diabetic Wistar rats [2]; bimoclomol 20 mg/kg, Compound A 5 mg/kg once a day",significantly improved
same,effect of an increase in the dose over 10 mg/kg on NCV improvement,STZ-diabetic Wistar rats [2]; dose over 10 mg/kg,did not increase the effect
same,effect on pathological deviations resulting from autonomous neuropathy,STZ-diabetic Wistar rats [3],significantly reduced
same,Heart left ventricular hypertrophy (deviation due to diabetes),STZ-diabetic Wistar rats [3]; 1 month,↑ (corrects)
same,Increased negative chronotropic effect on vagus stimulation,STZ-diabetic Wistar rats [3]; 1 month,↑ (corrects)
same,Reduced hypotension on vagus stimulation,STZ-diabetic Wistar rats [3]; 1 month,↑ (corrects)
same,Reduced IS induced systemic arterial hypotension,"STZ-diabetic Wistar rats [3]; 1 month, isoproterenol 0.4 μg/kg iv.",— (ineffective)
same,Score values Improvement %,"STZ-diabetic Wistar rats [4]; 5 mg/kg daily, 1 month",74.5%
same,Score values Mean ± SE (retinopathy histology),"STZ-diabetic Wistar rats [4]; 5 mg/kg daily, 1 month",4.028 ± 0.961
same,"comparison of the two compounds versus diabetic, non-treated animals",STZ-diabetic Wistar rats [4]; Compound A 5 mg/kg vs bimoclomol 20 mg/kg,statistically more effective
same,effect on diabetic retinopathy induced pathological histological alterations,"STZ-diabetic Wistar rats [4]; Compound A 5 mg/kg, bimoclomol 20 mg/kg daily, 1 month",significantly improved
same,24-hour Urinary Protein Loss Mean ± SE,"STZ-diabetic Wistar rats [5]; 10 mg/kg daily, 1 month, series 2",12.06 ± 1.70 mg/24 h
same,effect on STZ-diabetes-induced urinary protein loss,"STZ-diabetic Wistar rats [5]; Bimoclomol 20 mg/kg, Compound-A 10 mg/kg, (+) enantiomer 5 mg/kg daily",non-significantly reduced
same,Scores lenticular + retinal improvement %,STZ-diabetic rats; 10 mg/kg daily,34.7%
same,Scores lenticular + retinal mean ± SE,STZ-diabetic rats; 10 mg/kg daily,4.55 ± 0.69
same,Scores retinal improvement %,STZ-diabetic rats; 10 mg/kg daily,65.8%
same,Scores retinal mean ± SE,STZ-diabetic rats; 10 mg/kg daily,1.80 ± 0.75
same,effect on lenticular and retinal pathologic histological alterations,STZ-diabetic rats; [11],not significant
same,effect on retinal histological alterations only,STZ-diabetic rats; [11],effective
same,neuroregeneration of the non-freezed nerves,STZ-diabetic Wistar rats [6]; 10 mg/kg daily for 5 weeks,44%
same,extent of neuroregeneration of the nerve injured by freezing,"STZ-diabetic Wistar rats [6]; 10 mg/kg daily for 5 weeks after injury, 5. week, untreated 63%",73%
same,MNCV,"STZ-diabetic Wistar rats [7]; 10 mg/kg daily, 1 month",59.3 ± 0.3 m/s
same,MNCV improvement,"STZ-diabetic Wistar rats [7]; 10 mg/kg daily, 1 month",78.9%
same,SNCV improvement,"STZ-diabetic Wistar rats [7]; 10 mg/kg daily, 1 month",79.2%
same,effect on motor (MNCV) and sensory (SNCV) nerve conduction velocity deficits,STZ-diabetic Wistar rats [7]; [11],significantly improved
